Results from patent publication US8263083B2, “Combination therapy with antibody-drug conjugates” (priority 2007, dated 2012).
Like-named read-outs stand apart in the source and are kept apart here.

Tests used:
[1] = tested on: L540cy HL tumors; assay: Antitumor activity on subcutaneous L540cy HL tumors in SCID mice; type: in vivo; conditions: for Median TGD (FIG. 6) (days to triple): Vinblastine q4dx3
Procedure: (§1) SCID mice were implanted with L540cy HL cells in the right flank.
as §1
(§2) SCID mice were implanted with L540cy HL cells in the right flank. Groups of mice (5-10/group) were untreated or received cAC10-vcMMAE (1 mg/kg, q4dx3, ip) alone, Gemcitabine (120 mg/kg, q4dx3, ip) alone, or combination treatment with cAC10-vcMMAE and Gemcitabine when tumor sizes averaged approximately 100 mm^3.
as §2, with “and Gemcitabine,” for “and Gemcitabine”, “approximately 300” for “approximately 100”
as §1, §1
(§3) SCID mice were implanted with L540cy HL cells in the right flank. Groups of mice (5-10/group) were untreated or received cAC10-vcMMAE (1 mg/kg, q4dx3, ip) alone, Vinorelbine alone (4 mg/kg q5dx3), or combination treatment cAC10-vcMMAE and vinorelbine when tumor sizes averaged approximately 100 mm^3.
as §3
as §3, with “Doxorubicin” for “Vinorelbine”, “(3” for “(4”, “q4dx3),” for “q5dx3),”, “treatment with” for “treatment”, “doxorubicin” for “vinorelbine”
as §3, with “Doxorubicin” for “Vinorelbine”, “(1.5” for “(4”, “q4dx3),” for “q5dx3),”, “treatment with” for “treatment”, “doxorubicin” for “vinorelbine”
SCID mice were implanted with L540cy HL cells in the right flank. Groups of mice (7-10/group) were untreated or received cAC10-vcMMAE (1 mg/kg, q4dx3, ip) alone, Vinblastine alone ([…] q4dx3), or combination treatment with cAC10-vcMMAE and vinblastine when tumor sizes averaged approximately 300 mm^3.
as §2, with “(6-8/group)” for “(5-10/group)”
as §1

[2] = tested on: relapsed or refractory HL; conditions: cited from earlier work
[3] = FIG. 5A, first experiment, ~100 mm^3, cAC10-vcMMAE 1 mg/kg q4dx3 ip, Doxorubicin 3 mg/kg q4dx3
[4] = FIG. 5B, second experiment, ~100 mm^3, cAC10-vcMMAE 1 mg/kg q4dx3 ip, Doxorubicin 1.5 mg/kg q4dx3
[5] = ~100 mm^3, cAC10-vcMMAE 1 mg/kg q4dx3 ip, Gemcitabine 120 mg/kg q4dx3 ip
[6] = ~300 mm^3, cAC10-vcMMAE 1 mg/kg q4dx3 ip, Gemcitabine 120 mg/kg q4dx3 ip
[7] = FIG. 7, second study, ~100 mm^3, cAC10-vcMMAE 1 mg/kg q4dx3 ip, Gemcitabine 120 mg/kg q4dx3 ip
[8] = FIG. 6, ~300 mm^3, cAC10-vcMMAE 1 mg/kg q4dx3 ip, Vinblastine 0/1 mg/kg q4dx3
[9] = FIG. 6, ~300 mm^3, cAC10-vcMMAE 1 mg/kg q4dx3 ip
[10] = FIG. 4A, first experiment, ~100 mm^3, cAC10-vcMMAE 1 mg/kg q4dx3 ip, Vinorelbine 4 mg/kg q5dx3
[11] = FIG. 4B, second experiment, ~100 mm^3, cAC10-vcMMAE 1 mg/kg q4dx3 ip, Vinorelbine 4 mg/kg q5dx3

Molecule | Median TGD (FIG. 5A) (days to quadruple) [1, 3] [days] | durable responses, animals/group [1, 3] | Median TGD (FIG. 5B) (days to quadruple) [1, 4] [days] | durable responses, animals/group [1, 4] | Median TGD (FIG. 2A) (days to quadruple) [1, 5] [days] | Median TGD (FIG. 2B) (days to triplicate) [1, 6] [days] | Median TGD (FIG. 7) (days to quadruple) [1, 7] [days] | durable responses, animals/group [1, 7] | durable responses, animals/group [1, 8] | Median TGD (FIG. 6) (days to triple) [1, 9] [days] | Median TGD (FIG. 4A) (days to quadruple) [1, 10] [days] | durable responses, animals/group [1, 10] | Median TGD (FIG. 4B) (days to quadruple) [1, 11] [days] | durable responses, animals/group [1, 11] | other results
COc1cccc2c1C(=O)c1c(O)c3c(c(O)c1C2=O)C[C@@](O)(C(=O)CO)C[C@@H]3O[C@H]1C[C@H](N)[C@H](O)[C@H](C)O1 [Doxorubicin, reference compound] | 32 | 0/3 | 27.2 | 0/9 |  |  |  |  |  |  |  |  |  |  | 
Nc1ccn([C@@H]2O[C@H](CO)[C@@H](O)C2(F)F)c(=O)n1 [Gemcitabine, 4-amino-1-[(2R,4R,5R)-3,3-difluoro-4-hydroxy-5-(hydroxymethyl)oxolan-2-yl]pyrimidin-2-one, reference compound] |  |  |  |  | 5 | 15.5 | 42 | 1/6 |  |  |  |  |  |  | durable responses, animals/group ([1]; FIG. 8, at day 51, experiment not yet complete, ~100 mm^3, cAC10-mcMMAF 1 mg/kg q4dx3 ip, Gemcitabine 120 mg/kg q4dx3 ip): 0/10; response rates ([2]; relapsed/refractory setting, majority of patients with prior autologous or allogeneic transplant, Venkatesh et al. 2004): 22%; response rates ([2]; transplant naive setting, relapsed or refractory HL patients, Santoro et al. 2000): 39%
CC[C@]1(O)C[C@@H]2CN(CCc3c([nH]c4ccccc34)[C@@](C(=O)OC)(c3cc4c(cc3OC)N(C)[C@H]3[C@@](O)(C(=O)OC)[C@H](OC(C)=O)[C@]5(CC)C=CCN6CC[C@]43[C@@H]65)C2)C1 [Vinblastine, reference compound] |  |  |  |  |  |  |  |  | 0/10 | 30.93 |  |  |  |  | 
CCC1=C[C@@H]2CN(C1)Cc1c([nH]c3ccccc13)[C@@](C(=O)OC)(c1cc3c(cc1OC)N(C)[C@H]1[C@@](O)(C(=O)OC)[C@H](OC(C)=O)[C@]4(CC)C=CCN5CC[C@]31[C@@H]54)C2 [Vinorelbine, reference compound] |  |  |  |  |  |  |  |  |  |  | 28 | 0/6 | 34.4 | 0/9 | 
cAC10-vcMMAE: antibody-drug conjugate: chimeric AC10 anti-CD30 antibody linked via MC-val-cit-PAB to monomethyl auristatin E | 64 | 1/6 | 78.8 | 4/10 | 34 | 39.5 | 78.01 | 1/7 | 1/8 | 45.9 | 64 | 1/6 | 78.8 | 4/10 | effect on tumors compared to control treatment ([1]; FIG. 1A, monotherapy, tumors eventually progressed): induced tumor regressions and significant tumor growth delays; Median TGD (FIG. 1A) (days to quadruple) ([1]; FIG. 1A, treatment started at tumor size ~100 mm^3, cAC10-vcMMAE 1 mg/kg q4dx3 ip, ABVD: Adriamycin 1 mg/kg q4dx3 iv, Bleomycin 7.5 u/kg q4dx3 ip, Vinblastine 0.015 mg/kg q4dx3 ip, Dacarbazine 20 mg/kg q3dx4 ip): 63 days; durable responses (durable tumor regressions; absence of palpable tumor), animals/group ([1]; FIG. 1A, ~100 mm^3, cAC10-vcMMAE 1 mg/kg q4dx3 ip, ABVD full dose): 4/9; Median TGD (FIG. 1B) (days to triple) ([1]; FIG. 1B, treatment started at ~300 mm^3, cAC10-vcMMAE 1 mg/kg q4dx3 ip, ABVD: Adriamycin 0.75 mg/kg q4dx3 iv, Bleomycin 6 u/kg q4dx3 ip, Vinblastine 0.01 mg/kg q4dx3 ip, Dacarbazine 15 mg/kg q3dx4 ip): 41 days; durable responses, animals/group ([1]; FIG. 1B, ~300 mm^3, cAC10-vcMMAE 1 mg/kg q4dx3 ip, ABVD dosages reduced by 25%): 2/10; durable responses, animals/group ([1]; FIG. 3A, first experiment, ~100 mm^3, cAC10-vcMMAE 1 mg/kg q4dx3 ip, GVD): 4/9; Median TGD (FIG. 3A) (days to quadruple) ([1]; FIG. 3A, first experiment, ~100 mm^3, cAC10-vcMMAE 1 mg/kg q4dx3 ip, GVD: gemcitabine 60 mg/kg q4dx3 ip, vinorelbine 2 mg/kg q5dx3 ip, doxorubicin 1.5 mg/kg q4dx3 iv): 84.6 days; durable responses, animals/group ([1]; FIG. 3B, second experiment, ~100 mm^3, cAC10-vcMMAE 1 mg/kg q4dx3 ip, GVD): 0/7; Median TGD (FIG. 3B) (days to quadruple) ([1]; FIG. 3B, second experiment, ~100 mm^3, cAC10-vcMMAE 1 mg/kg q4dx3 ip, GVD: gemcitabine 60 mg/kg q4dx3 ip, vinorelbine 2 mg/kg q5dx3 ip, doxorubicin 1.5 mg/kg q4dx3 iv): 54.7 days
